{
  "source": "patent US11154551B2",
  "about": "“HDAC1,2 inhibitors and methods of using the same” (UNIVERSITY OF UTAH RESEARCH FOUNDATION, priority 2014, dated 2021)",
  "key": {"[1]": {"tested_on": "Karpas-422, SUDHL4, WSU-DLCL2 and HeLa cells", "experiment": "laser micro-irradiation repair assay, H3K27me3 at break sites", "type": "cell-based, human", "details": "15 min recovery, vs DMSO", "protocol": "Following DMSO or ACY-957 treatment, cells were exposed to a 5Gy dose of ionizing radiation and allowed to recover for 30 minutes prior to chromatin extraction. Western blots were performed with anti-H3K27ac or anti-H3K27me3 with histone H3 serving as a loading control. (B-E): Karpas-422, SUDHL4, WSU-DLCL2 and HeLa cells were laser micro-irradiated and allowed to recover for 15 minutes before fixation and immunofluorescence staining with anti-γH2AX and anti-H3K27me3. Subsequently, the percentage of cells with H3K27me3 lines that co-localized with γH2AX were counted. Merge is the overlay of γH2AX and H3K27me3 pictures. (F-I): At least 100 cells with γH2AX lines were counted in each experiment. The quantitation shown was the average calculated from independent experiments+/−standard error. Quantitation from five, seven, five and six independent experiments performed in Karpas-422, SUDHL4, WSU-DLCL2 and HeLa cells, respectively, was used in the graph shown in this figure. […]\n(A) Measurement of repair efficiency in SUDHL5 (EZH2^WT) and Karpas-422 (EZH2^GOF) cells using neutral comet assay that detects only double-strand breaks (DSBs). […] H3K27me3, γH2AX, Bmi-1, and serine2-phosphorylated RNA Polymerase II (engaged in transcriptional elongation) were monitored at laser break sites (arrows) after 15 minutes of recovery time. […]"}, "[2]": {"tested_on": "SupB15 (Ph+PreB-ALL) cells", "experiment": "γH2AX immunofluorescence", "type": "cell-based, human", "details": "2 μM, 48 hours", "protocol": "SupB15 cells were treated with 2 μM ACY1035, ACY1071, ACY957, or solvent (DMSO) for 48 hours. (A) Immunofluorescence with γH2AX was performed on treated SupB15 cells. The number of γH2AX foci was counted in around 100 cells for each treatment and classified into cells with no foci, 1-5, 6-10, and greater than 10 foci. (B) SupB15 cells treated with DMSO or ACY1035 for 48 hours were tested via neutral comet assay to measure the amount of double-strand breaks (DSBs), indicated by the tail.\nBCR-ABL promotes DNA repair to prevent DNA damage accumulation in Philadelphia chromosome-positive (Ph+) leukemia cells. To examine the effect of various HDAC1,2-selective inhibitors on DNA repair and DNA damage response in Pre-B-ALL cells that express BCR-ABL, SupB15 (Ph+PreB-ALL) cells were treated with 2 μM ACY1035 or 2 μM ACY1071 or 2 μM ACY957 for 48 hours."}, "[3]": {"tested_on": "SUDHL4 and Karpas-422 cells", "experiment": "Western blot of γH2AX on chromatin, with or without ionizing radiation", "type": "cell-based, human", "protocol": "The percentage of cells with 6 or greater γH2AX foci were counted in three independent experiments and at least 100 cells were counted in each experiment. […] Histones were purified using trichloroacetic acid extraction protocol (see Example 1). Western blot analysis was done with anti-γH2AX and histone H2AX served as the loading control. […] Following DMSO or ACY957 treatment, cells were exposed to a 5Gy dose of ionizing radiation and allowed to recover for 30 minutes prior to chromatin extraction. Western blot analysis was done with anti-γH2AX where total histone H2AX served as a loading control. (D): Karpas-422 cells were micro-irradiated with laser and allowed to recover for 15 minutes before fixation and immunofluorescence staining with anti-γH2AX, anti-HDAC1 and anti-HDAC2 antibodies was done."}, "[4]": {"tested_on": "Karpas-422 and SUDHL4 cells", "experiment": "Western blot of histone acetylation marks in whole cell lysates", "details": "vs DMSO", "method": "Compounds were diluted in DMSO to 50 fold the final concentration and a ten point three fold dilution series was made. The compounds were diluted in assay buffer (50 mM HEPES, pH 7.4, 100 mM KCl, 0.001% Tween-20, 0.05% BSA, 20 μM tris(2-carboxyethyl)phosphine) to 6 fold their final concentration. The HDAC enzymes (purchased from BPS Biosciences) were diluted to 1.5 fold their final concentration in assay buffer. The tripeptide substrate (synthesized in house) and trypsin at 0.05 μM final concentration were diluted in assay buffer at 6 fold their final concentration. Five μl compounds and 20 μl of enzyme were added to wells of a black, opaque 384 well plate in duplicate. Enzyme and compound were incubated together at room temperature for 10 minutes. Five μl of substrate was added to each well, the plate was shaken for 60 seconds and placed into a Victor 2 microtiter plate reader. The development of fluorescence was monitored for 60 min and the linear rate of the reaction was calculated. The IC50 was determined using Graph Pad Prism by a four parameter curve fit."}},
  "data": [
    {"smiles": "Nc1ccc(-c2cccs2)cc1NC(=O)c1ccc2nc(N3CCNCC3)ccc2c1", "note": "[ACY-957, N-(2-amino-5-(thiophen-2-yl)phenyl)-2-(piperazin-1-yl)quinoline-6-carboxamide]", "values": [
      {"measurement": "H3K27me3 at laser-induced break sites", "setting": "[1]", "result": "reduced the extent of H3K27me3 present at laser-induced break sites"},
      {"measurement": "H3K27me3 at laser-induced break sites", "setting": "[1]; listed as ACY957", "result": "abolished"},
      {"measurement": "DNA damage, quantitation of γH2AX foci", "setting": "[2]", "result": "statistically significant increase in DNA damage"},
      {"measurement": "chromatin associated γH2AX", "setting": "[3]; 48 hr, Western", "result": "increase in chromatin associated γH2AX"},
      {"measurement": "γH2AX levels on chromatin after ionizing radiation", "setting": "[3]; 48 h treatment, 5Gy, 30 min recovery", "result": "Increased γH2AX levels on chromatin"},
      {"measurement": "H3K23ac levels", "setting": "[4]; 2 μM, 24 hours", "result": "increased H3K23ac levels"},
      {"measurement": "H3K9,K14ac and H4K5ac levels", "setting": "[4]; increasing amounts, 24 hr", "result": "concentration-dependent increase"}
    ]}
  ]
}
